Measured values taken from patent publication US10730825B2, “Methods for the treatment of diabetic retinopathy and other ophthalmic diseases” (Acucela Inc., priority 2012, dated 2020).
Each block holds one compound with its values, some of them ahead of it.

Key:
VEGF = VEGF up-regulation caused by hypoxic conditions; assay type: in vivo; settings: for VEGF mRNA levels: compared to vehicle control
Method: FIG. 8 depicts a protocol used to test if ACU-4935 reduced VEGF up-regulation caused by hypoxic conditions. Briefly, animals were adapted for dark for 16 hours, then dosed with ACU-4935. Animals were photobleached for 10 minutes with 50000 Lux 2 hours after being dosed, followed by a 2 hour recovery in the dark. Hypoxia was induced with 6% O2 for 6 hours. A portion of the animals were euthanized and samples were collected at time 0. Another portion of the animals were returned to the dark for 2 more hours prior to being euthanized and sample collection.
Samples were tested for VEGF protein (FIG. 9) and mRNA expression (FIG. 10).

visual cycle isomerase [1] = target: T1, visual cycle isomerase (Homo sapiens, UniProt Q16518); test: in vitro isomerase activity; assay type: biochemical
T1 sequence (Q16518 1-533): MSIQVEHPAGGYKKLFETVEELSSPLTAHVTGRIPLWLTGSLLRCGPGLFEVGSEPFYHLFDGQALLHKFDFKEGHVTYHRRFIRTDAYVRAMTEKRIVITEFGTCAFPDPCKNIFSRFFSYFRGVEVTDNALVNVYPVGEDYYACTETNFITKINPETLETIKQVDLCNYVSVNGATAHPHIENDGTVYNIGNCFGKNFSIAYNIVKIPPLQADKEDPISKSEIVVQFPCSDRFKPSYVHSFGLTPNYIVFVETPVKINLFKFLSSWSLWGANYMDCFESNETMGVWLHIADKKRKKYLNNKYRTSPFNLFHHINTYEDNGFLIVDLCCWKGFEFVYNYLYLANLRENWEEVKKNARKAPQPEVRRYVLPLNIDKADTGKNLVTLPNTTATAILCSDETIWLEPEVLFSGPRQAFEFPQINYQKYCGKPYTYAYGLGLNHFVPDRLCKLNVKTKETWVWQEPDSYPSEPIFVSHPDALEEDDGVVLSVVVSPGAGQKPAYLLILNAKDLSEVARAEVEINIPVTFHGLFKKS

visual cycle isomerase [2] = target: T2, visual cycle isomerase (Mus musculus, UniProt Q91ZQ5); test: in vivo isomerase assay single dose, mice
T2 sequence (Q91ZQ5 1-533): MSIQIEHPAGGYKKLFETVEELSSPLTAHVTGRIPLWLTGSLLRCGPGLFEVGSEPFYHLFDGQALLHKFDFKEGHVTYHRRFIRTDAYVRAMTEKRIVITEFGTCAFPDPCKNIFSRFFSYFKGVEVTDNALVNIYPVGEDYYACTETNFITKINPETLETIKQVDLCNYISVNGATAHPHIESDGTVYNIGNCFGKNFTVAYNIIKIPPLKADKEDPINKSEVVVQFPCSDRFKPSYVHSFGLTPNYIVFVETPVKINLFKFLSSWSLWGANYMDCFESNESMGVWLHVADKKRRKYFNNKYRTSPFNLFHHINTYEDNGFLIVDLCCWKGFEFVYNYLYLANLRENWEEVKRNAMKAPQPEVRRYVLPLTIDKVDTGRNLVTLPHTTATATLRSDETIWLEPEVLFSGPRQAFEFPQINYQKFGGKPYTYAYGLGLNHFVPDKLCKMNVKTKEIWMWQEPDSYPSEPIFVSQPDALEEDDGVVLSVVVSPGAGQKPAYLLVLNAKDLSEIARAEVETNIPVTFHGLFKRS

[3] = system: retinal neovascularization; test: Retinal neovascularization in mouse model of oxygen-induced retinopathy (OIR); settings: OIR mice; for Retinal neovascular area reduced: 4 days
Method: Pups were euthanized on P17, when neovascularization was maximal and eyes were removed for analysis.
Areas of retinal neovascularization were visualized with isoelectin staining of flatmount preparations and quantified with the lasso tool in Adobe Photoshop; total area of neovascularization indicated the sum of individual areas across the retina, and % neovascularization was relative to the total area of the retina^4.
Statistical analyses were performed using GraphPad Prism software.

[4] = system: retinal cationic activity (Mn2+ uptake); test: Manganese-enhanced MRI (MEMRI) single dose study; settings: rats, Mn2+ uptake by MRI
Method: Rats are to be maintained in regular laboratory lighting (12 hours light, 12 hours dark) prior to start of experimental period—light exposure, bleaching, dark adaption will vary by cohort (see below).
Animals are to be dosed by oral gavage according to group assignment below. Rats are to be weighed each week of the experimental period.
Dilate pupils by applying 1 drop of tropicamide (0.5%) 10-30 minutes before photobleaching. Photobleach animals for 10 minutes by exposure to 5000 lux 4 hours before MRI imaging.
Inject rats immediately after bleach, 4 hours prior to the start of imaging session. MEMRI signal reflects state of expression of activity-dependent channels during experimental period.
Keep rats in dark (IOP room) during the 4 hours between injection and transport to the imaging center for practice experiments for all groups except group 4. Keep animals from group 4 exposed to light during 4 hours between MnCl2 injection and MRI imaging. Otherwise follow light-dark-bleaching cycle described for each cohort.
A snapshot FLASH inversion recovery (IR) imaging sequence is used to acquire a single imaging slice bisecting the retina in the axial and sagittal planes, using a 12 mm inner diameter linear surface coil. […] The approximate scan time per animal is ˜16 minutes. […]

IC50 (visual cycle isomerase [1]): 5.2 nM | ED50 (visual cycle isomerase [2]): 0.4 µg/kg
SMILES: CCCC(CCC)COc1cccc([C@H](O)CCN)c1 [ACU-4935, (R)-3-amino-1-(3-(2-propylpentyloxy)phenyl)propan-1-ol]
VEGF mRNA levels (VEGF; 2 hours post-hypoxia): slightly increased | VEGF protein expression (VEGF; after 6% O2 for 6 hours, vs vehicle): Slight differences | VEGF mRNA levels (VEGF; time 0 after hypoxia): decreased | Retinal neovascular area reduced ([3]; 0.3 mg/kg/day intraperitoneal, vs vehicle): 23% | Retinal neovascular area compared to treatment with vehicle [3]: significantly reduced

SMILES: CC(=O)NCC=C(C)C=CC=C(C)C=CC1=C(C)CCCC1(C)C [Retinyl acetamide]
Retinal behaviour after bleach and dark adaptation (expectation) [4]: behave as if they were light adapted

SMILES: CN(C)C[C@@H]1CCn2cc(c3ccccc32)C2=C(C(=O)NC2=O)c2cn(c3ccccc23)CCO1 [Ruboxistaurin, reference compound]
Retinal neovascular area reduced ([3]; 10 mg/kg/day intraperitoneal, positive control): 29%
